{"source": "patent US6593137B1", "about": "“Antibodies specific for fullerenes” (The Trustees of Columbia University in the City of New York, priority 1999, dated 2003)", "key": {"Air sensitivity": {"experiment": "Air sensitivity", "type": "physicochemical", "text": "While previous work reported in the literature performed HPLC under aerobic conditions, (see for example Funasaka et al. 1995) these studies determined that anaerobic controls better preserved the fraction of Gd@C82 in solution. […] The fraction containing the Gd@C82 was identified using MS. The solubility of fullerenes in o-xylene is about three times that of toluene and this greatly increases the ratio of fullerenes in solution to those retained on the stationary phase. Therefore, the capacity or amount of fullerenes purified per injection was very large. Each injection contained 2 ml of saturated fullerene o-xylene solution (about 30 mg of fullerenes)."}, "[1]": {"tested_on": "anti-fullerene antibodies", "experiment": "ELISA competitive inhibition of antibody binding to 1-RSA", "design": "species or system BALB/c mice", "description": "After a total of three immunizations at 3-week intervals, confirmation of an immune response was determined by direct ELISA in which polystyrene plates (Corning) were coated with the 1-RSA conjugate (0.5 mg/ml in 0.1 M NaHCO3, pH 9), and binding of preimmune and immune sera were determined by standard procedures. Development was with horseradish peroxidase-labeled goat anti-mouse IgG (Sigma), which tested negative for crossreaction with an IgM preparation. The substrate used was o-phenylenediamine.\n(§1) Specificity of the resp)onse was determined by two procedures: double diffusion in agar (22) and competitive inhibition, as determined by ELISA using RSA and BSA conjugates of the fullerenes, as well as the oligo lysine derivatives. The fullerenes themselves were not soluble enough in aqueous solutions.\nThe adenosine conjugate had been synthesized using the same strategy used for the fullerenes, i.e., linkage to the epsilon amino groups of the lysines via an N-hydroxysuccinimide ester derivative."}, "Sprague-Dawley rats": {"tested_on": "Sprague-Dawley rats", "experiment": "γ-camera imaging study", "type": "in vivo", "settings": "IP", "description": "The biodistribution in mice of hydroxylated lanthanide-C82 encapsulates is under current investigation. The results presented here are regarded as preliminary as the sample is still small. Studies continue under a NIH Phase I grant. The neutron irradiated samples, along with a ^166Ho^3+ control sample, were used to perform a γ-camera imaging study on four 300 g Sprague-Dawley rats. Two rats were injected intraperitoneally (IP) with 54 and 18 μCi of ^166Ho activity from samples containing irradiated Ho-metallofullerois. Two control studies were performed by IP administration of approximately 660 μCi of ^166Ho^3+ in a 1% sodium citrate buffer. The anesthetized rats were scanned side-by-side on a single stage with a γ-camera starting 1 hour after injection and periodically thereafter over the ensuing 48 hours."}, "[2]": {"tested_on": "anti-fullerene antibodies", "experiment": "Double diffusion in agar", "type": "binding, BALB/c mice", "description": "Immunization Procedure and Detection of Antibodies. BALB/c mice were immunized i.p. with 1-TG in complete Freund's adjuvant for the primary immunization and incomplete adjuvant for subsequent immunizations.\nas §1\nSpecificity of the response was determined by two procedures: Double diffusion in agar and competitive inhibition, as determined by ELISA using RSA and BSA conjugates of the fullerenes, as well as the oligo lysine derivatives. The fullerenes themselves were not soluble enough in aqueous solutions."}, "[3]": {"tested_on": "human keratinocytes and fibroiblasts", "settings": "cited from earlier work"}}, "data": [{"molecule": "Gd@C82(OH)x", "values": [{"measurement": "air sensitivity", "setting": "Air sensitivity", "value": "does not appear to be air sensitive"}]}, {"molecule": "Rabbit Serum Albumin [RSA]", "values": [{"measurement": "inhibition of antibody binding to 1-RSA", "setting": "[1]", "value": "No inhibition"}]}, {"molecule": "[166Ho+3]", "note": "[^166Ho^3+]", "values": [{"measurement": "excretion of 166Ho activity", "setting": "Sprague-Dawley rats; after 24 hours", "value": "essentially all ^166Ho activity had been excreted"}, {"measurement": "urinary clearance", "setting": "Sprague-Dawley rats; commencing 1 hour post-injection", "value": "rapid ^166Ho^3+ urinary clearance"}]}, {"molecule": "bovine thyroglobulin [TG]", "values": [{"measurement": "precipitation with immune serum in double diffusion in agar", "setting": "[2]; TG solution diluted 5-fold", "value": "a line of precipitation was seen"}, {"measurement": "precipitation with immune serum in double diffusion in agar", "setting": "[2]; serum of mice immunized with 1-TG", "value": "no visible precipitate"}, {"measurement": "inhibition of antibody binding to 1-RSA", "setting": "[1]", "value": "No inhibition"}]}, {"molecule": "c12c3c4c5c1c1c6c7c2c2c8c3c3c9c4c4c%10c5c5c1c1c6c6c%11c7c2c2c7c8c3c3c8c9c4c4c9c%10c5c5c1c1c6c6c%11c2c2c7c3c3c8c4c4c9c5c1c1c6c2c3c41", "note": "[Compound C60, fullerene-C60]", "values": [{"measurement": "effect on rate of thymidine uptake", "setting": "[3]", "value": "no effect"}]}]}
